For test [1], the system named is platelet rich plasma (ADP and collagen-induced platelet aggregation). Briefly: In Vitro Inhibition of Platelet Aggregation (aggregometer method of Born, ADP- or collagen-induced). The test is classed as cell-based. The note with it: Oryctolagus cuniculus, rabbit PRP. The source says: In Vitro Inhibition of Platelet Aggregation
The aggregometer method of Born (1), as modified by Mustard, et al. (2) was used to assess the in vitro activity of the various compounds as to inhibition of adenosine diphosphate (ADP) and collagen-induced platelet aggregation. Platelet rich plasma (PRP) was separated by centrifugation from citrated (3.8 percent) rabbit blood. […] The various compounds tested were dissovled in dimethylsulfoxide (DMSO) so that 5 mcl added to the platelet rich plasma would yield the desired test concentration. Vehicle control trials were done and compared with aggregation induced in platelet rich plasma containing various concentrations of the test compounds. Dose response curves were obtained and Effective Concentration (EC50) values calculated.

For test [2], the system named is cAMP phosphodiesterase (human platelets). Briefly: Inhibition of Cyclic AMP Phosphodiesterase. The test is classed as biochemical. The note with it: PDE from human platelets. How it is done: Inhibition of Cyclic AMP Phosphodiesterase
This assay is carried out essentially as described by Thompson, et al., Methods in Enzymology, 38, 205-212 (1974). Briefly, tritium labeled cyclic adenosine monophosphate (cAMP) is incubated with a phosphodiesterase (PDE) enzynme obtained from human platelets which converts a portion of the cAMP to 5'AMP in culture tubes. This reaction is terminated by submerging the tubes in a boiling water bath after which they are placed on ice and an aliquot of snake venom is added to each tube. This, during a second incubation, converts the 5'AMP to adenosine. Ion exchange resin is added to bind the remaining cyclic AMP. The tubes are centrifuged to sediment the resin and a portion of the clear supernatent (which contains radioactive adenosine) is counted in a liquid scintillation counter. The cAMP phosphodiesterase inhibition activity of a test agent is determined by pre-incubating the PDE enzyme preparation with the test agent.

For test [3], the system named is platelet rich plasma (induced aggregation). Briefly: Inhibition of Platelet Aggregation Following Oral Administration (Ex vivo method). The test is classed as in vivo. Conditions: Rattus norvegicus, rats, oral (gavage), 2 hours after dosing, vs. ADP. How it is done:
Inhibition of Platelet Aggregation Following Oral Administration
This test is sometimes referred to in the art as an Ex vivo method and was initially described by Fleming, et al., Arch. Int. Pharmacodyn. Ther., 199, 164 (1972). Briefly, the assay is essentially carried out as follows.
Aggregometry is performed in vitro as previously described on platelet rich plasma samples obtained from rats dosed with either test compounds or the vehicle. In all cases, activity is determined 2 hours after the drug is administered orally at various doses by gavage as a suspension in […] plus a few drops of Tween 20.

The subject of a further test is ferrets. Put plainly: Ferret In Vivo Inotropic Activity. Conditions: anesthetized ferrets, monitored 60 minutes; for Maximum Percentage Change, Right Ventricular Contractile Force: percent change from predose control. How it is done:
In Vivo Inotropic Activity This test is carried out in ferrets as follows. Fasted anesthetized ferrets are instrumented to study hemodynamic parameters as well as right ventricular contractile force (RVCF) using a Walton-Brodie open strain guage arch. Drugs are administered intraduodenally as solutions in DMSO (1 mL or less) and effects on myocardial contractile force and other parameters are monitored for 60 minutes after dosing. Changes in contractile force in response to drug treatment are expressed in terms of percent change from predose control.

Setting [4] is: vs. ADP (0.5 mcg/ml), read-out: Platelet Inhibition In Vitro - Rabbit PRP EC50 vs. ADP.
Where [5] appears, read: vs. collagen, read-out: Platelet Inhibition In Vitro - Rabbit PRP EC50 vs. collagen.

The values below come from patent publication US4701459A, “7-amino-1,3-dihydro-2H-imidazo[4,5-b]quinolin 2-ones and method for inhibiting phosphodiesterase and blood platelet aggregation” (Bristol-Myers Company, priority 1986, dated 1987).

SMILES strings stand for the structures. Values after ≈ are worked out from the molar mass of the structure shown. Where two headings read alike, the source gives them in different places.

As a reminder, the EC50 is the concentration giving half of the maximal effect. As to `O=c1[nH]c2cc3cc(N4CCN(c5ccccc5)CC4)ccc3nc2[nH]1` [Example 16, 1,3-Dihydro-7-(4-phenyl-1-piperazinyl)-2H-imidazo[4,5-b]quinolin-2-one], the concentration giving a half-maximal response (EC50) is 0.12 µg/mL (≈ 0.347 µM) in test [1] (setting [4]) and 0.025 µg/mL (≈ 0.0724 µM) in test [1] (setting [5]).

By IC50 is commonly meant the point on the concentration scale where inhibition reaches its midpoint. The low end stands for inhibition by little substance, the high end for a need for much substance. In the case of `O=C(c1ccccc1)N1CCN(c2ccc3nc4[nH]c(=O)[nH]c4cc3c2)CC1` [Example 14, 1-Benzoyl-4-(2,3-dihydro-2-oxo-1H-imidazo[4,5-b]quinolin-7-yl)piperazine], in test [1] (setting [4]), the EC50 came to 0.125 µg/mL (≈ 0.335 µM). The same compound had an IC50 in test [2] of 600 nM.

On to `CCOC(=O)N1CCN(c2ccc3nc4[nH]c(=O)[nH]c4cc3c2)CC1` [Example 13, Ethyl 4-(2,3-Dihydro-2-oxo-1H-imidazo[4,5-b]quinolin-7-yl)-1-piperazinecarboxylate], for which the concentration for a half-maximal effect (EC50) in test [1] (setting [5]) came out at 0.17 µg/mL (≈ 0.498 µM). In test [2], this compound registered a 50% inhibitory concentration (IC50) of 700 nM.

For the compound `O=c1[nH]c2cc3cc(N4CCOCC4)ccc3nc2[nH]1` [Example 10, 1,3-Dihydro-7-(4-morpholinyl)-2H-imidazo[4,5-b]quinolin-2-one], the concentration for a half-maximal effect (EC50) in test [1] (setting [4]) is 0.03 µg/mL (≈ 0.111 µM); in test [1] (setting [5]), 0.02 µg/mL (≈ 0.074 µM). The concentration for half-maximal inhibition (IC50) in test [2] was 20 nM.

As for `CC(=O)Nc1ccc2nc3[nH]c(=O)[nH]c3cc2c1` [Example 4, N-(2,3-Dihydro-2-oxo-1H-imidazo[4,5-b]quinolin-7-yl)acetamide], the half-maximal effective concentration (EC50) was 2 µg/mL (≈ 8.26 µM) in test [1] (setting [4]) and 0.8 µg/mL (≈ 3.3 µM) in test [1] (setting [5]). For the same compound, half-maximal inhibition in test [2] (IC50) required 700 nM.

As to `O=c1[nH]c2cc3cc(N4CCCC4)ccc3nc2[nH]1` [Example 8, 1,3-Dihydro-7-(1-pyrrolidinyl)-2H-imidazo-[4,5-b]quinolin-2-one], the EC50 in test [1] (setting [5]) was determined as 0.4 µg/mL (≈ 1.57 µM).

Turning to `Nc1ccc2nc3[nH]c(=O)[nH]c3cc2c1` [Example 5, 7-Amino-1,3-dihydro-2H-imidazo[4,5-b]quinolin-2-one], the EC50 in test [1] (setting [5]) was found to be 0.4 µg/mL (≈ 2 µM).

By ED50 is commonly meant the midpoint of the dose-response relation. A low value points to greater potency. Turning to `OCCN(CCO)c1nc(N2CCCCC2)c2nc(N(CCO)CCO)nc(N3CCCCC3)c2n1` [dipyridamole, reference compound], the EC50 in test [1] (setting [4]) was […]; in test [1] (setting [5]), […]. This compound had a 50% effective dose (ED50) in test [3] of over 100 mg/kg.

`O=C(Nc1ccc2nc3[nH]c(=O)[nH]c3cc2c1)c1ccccc1` [Example 6, N-(2,3-Dihydro-2-oxo-1H-imidazo[4,5-b]quinolin-7-yl)benzamide] came in with an ED50 in test [3] of 5.6 mg/kg. The compound also had an IC50 in test [2] of 200 nM. For the same compound, in the test on ferrets (3 mg/kg intraduodenal), the “Maximum Percentage Change, Blood Pressure” value was -8 ± 6% and the “Maximum Percentage Change, Right Ventricular Contractile Force” value stood at 9 ± 4%.

With `COC(=O)C1CCN(c2ccc3nc4[nH]c(=O)[nH]c4cc3c2)CC1` [Example 11, Methyl 1-(2,3-Dihydro-2-oxo-1H-imidazo[4,5-b]quinolin-7-yl)-4-piperidinecarboxylate], the EC50 in test [1] (setting [4]) amounted to 0.04 µg/mL (≈ 0.123 µM); in test [1] (setting [5]) it was 0.012 µg/mL (≈ 0.0368 µM).

On to `O=C(O)C1CCN(c2ccc3nc4[nH]c(=O)[nH]c4cc3c2)CC1` [Example 12, 1-(2,3-Dihydro-2-oxo-1H-imidazo[4,5-b]quinolin-7-yl)-4-piperidinecarboxylicAcid], for which the EC50 in test [1] (setting [4]) was determined as 3.5 µg/mL (≈ 11.2 µM); in test [1] (setting [5]), 3 µg/mL (≈ 9.61 µM). In test [2], this compound came in with an IC50 of 20 nM.

In the case of `CN(C(=O)C1CCN(c2ccc3nc4[nH]c(=O)[nH]c4cc3c2)CC1)C1CCCCC1` [Example 17, N-Cyclohexyl-1-(2,3-dihydro-2-oxo-1H-imidazo[4,5-b]quinolin-7-yl)-N-methyl-4-piperidinecarboxamide], the concentration for a half-maximal effect (EC50) is 1.5 µg/mL (≈ 3.68 µM) in test [1] (setting [4]) and 0.75 µg/mL (≈ 1.84 µM) in test [1] (setting [5]).

In the case of `O=c1[nH]c2cc3cc(N4CCCCC4)ccc3nc2[nH]1` [Example 7, 1,3-Dihydro-7-(1-piperidinyl)-2H-imidazo[4,5-b]quinolin-2-one], the EC50 in test [1] (setting [4]) worked out at 1 µg/mL (≈ 3.73 µM). Further, the ED50 in test [3] was found to be 20 mg/kg. The results for the “Maximum Percentage Change, Blood Pressure” value in the test with ferrets (0.3 mg/kg intraduodenal) and in the test with ferrets (3 mg/kg intraduodenal) were -21 ± 5% and -39 ± 3%, respectively. For the same compound, the “Maximum Percentage Change, Right Ventricular Contractile Force” value with ferrets (0.3 mg/kg intraduodenal) amounted to 14 ± 12%; with ferrets (3 mg/kg intraduodenal), 22 ± 8%.

As for `CCN(CC)c1ccc2nc3[nH]c(=O)[nH]c3cc2c1` [Example 9, 7-(Diethylamino)-1,3-dihydro-2H-imidazo[4,5-b]quinolin-2-one], in test [1] (setting [4]), the EC50 is 0.3 µg/mL (≈ 1.17 µM).

As to `COc1ccc(C(=O)N2CCN(c3ccc4nc5[nH]c(=O)[nH]c5cc4c3)CC2)cc1OC` [Example 15, 1-(2,3-Dihydro-2-oxo-1H-imidazo[4,5-b]quinolin-7-yl)-4-(3,4-dimethoxybenzoyl)piperazine], the 50% effective concentration (EC50) in test [1] (setting [4]) was found to be 3 µg/mL (≈ 6.92 µM); in test [1] (setting [5]) it was 2 µg/mL (≈ 4.61 µM).

With `Cc1[nH]c(=O)c(C#N)cc1-c1ccncc1` [milrinone, reference compound], the “Maximum Percentage Change, Right Ventricular Contractile Force” value with ferrets (3 mg/kg intraduodenal) was 52%.
